This assay deals with T1, BACE1 (Homo sapiens, UniProt P56817).
T1 construct: endogenous in cells; host or cells: HEK293 APP cells
Briefly: Cellular Aβ-lowering assay (Abeta 40 AlphaLISA, HEK293 APP cells). Type of assay: cell-based. As to conditions: Aβ 40 in culture supernatant by AlphaLISA, 18-20 hrs incubation at 37° C., 1% DMSO. The protocol:
The compounds were investigated in accordance with the test given hereinafter.
The Abeta 40 AlphaLISA Assay can be used. The HEK293 APP cells were seeded in 96 well Microtiter plates in cell culture medium (Iscove's, plus 10% (v/v) fetal bovine serum, penicillin/streptomycin) to about 80% confluency and the compounds were added at a 3× concentration in ⅓ volume of culture medium (final DMSO concentration was kept at 1% v/v). After 18-20 hrs incubation at 37° C. and 5% CO2 in a humidified incubator, the culture supernatants were harvested for the determination of Aβ 40 concentrations using Perkin-Elmer Human Amyloid beta 1-40 (high specificity) Kit (Cat# AL275C).
In a Perkin-Elmer White Optiplate-384 (Cat# 6007290), 2 ul culture supernatants were combined with 2 μl of a 10× AlphaLISA Anti-hAβAcceptor beads+Biotinylated Antibody Anti-Aβ 1-40 Mix (50 μg/mL/5 nM). After 1 hour room temperature incubation, 16 μl of a 1.25× preparation of Streptavidin (SA) Donor beads (25 μg/mL) were added and incubated for 30 minutes in the Dark. Light Emission at 615 nm was then recorded using EnVision-Alpha Reader. Levels of Aβ 40 in the culture supernatants were calculated as percentage of maximum signal (cells treated with 1% DMSO without inhibitor). The IC50 values were calculated using the Excel XLfit software.
On the technique in general: Alpha assays give light when donor and acceptor beads are brought close together.

Each structure is given as a SMILES string.

T1 sequence (P56817 46-501): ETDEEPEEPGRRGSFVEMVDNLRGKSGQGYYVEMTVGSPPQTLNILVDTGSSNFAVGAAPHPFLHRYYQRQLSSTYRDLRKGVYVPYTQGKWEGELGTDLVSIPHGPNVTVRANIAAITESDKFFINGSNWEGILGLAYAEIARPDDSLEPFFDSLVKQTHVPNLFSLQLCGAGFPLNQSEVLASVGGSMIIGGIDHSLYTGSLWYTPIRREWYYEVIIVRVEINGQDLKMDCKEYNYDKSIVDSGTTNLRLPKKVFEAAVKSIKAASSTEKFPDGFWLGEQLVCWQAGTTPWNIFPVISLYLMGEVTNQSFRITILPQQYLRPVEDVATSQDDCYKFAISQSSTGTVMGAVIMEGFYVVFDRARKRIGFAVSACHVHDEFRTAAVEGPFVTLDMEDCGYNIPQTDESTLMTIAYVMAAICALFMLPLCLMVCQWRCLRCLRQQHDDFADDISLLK

With `N#Cc1ccc(C(=O)Nc2ccc(F)c([C@]3(C(F)F)C[S@]4(=O)=NCCCCN4C(N)=N3)n2)nc1` [Example 6, N-[6-[(1S,10S)-8-Amino-10-(difluoromethyl)-1-oxo-1λ^6-thia-2,7,9-triazabicyclo[5.4.0]undeca-1,8-dien-10-yl]-5-fluoropyridin-2-yl]-5-cyanopyridine-2-carboxamide], the half-maximal inhibitory concentration (IC50) – broadly, the concentration that gives 50% inhibition – was 78 nM.

The compound `N#Cc1ccc(C(=O)Nc2ccc(F)c([C@]3(C(F)F)C[S@@]4(=O)=NCCCCN4C(N)=N3)n2)nc1` [Example 7, N-[6-[(1R,10S)-8-Amino-10-(difluoromethyl)-1-oxo-1λ^6-thia-2,7,9-triazabicyclo[5.4.0]undeca-1,8-dien-10-yl]-5-fluoropyridin-2-yl]-5-cyanopyridine-2-carboxamide] showed a half-maximal inhibitory concentration (IC50) of 147 nM.

The values are drawn from patent US10047102B2, “Pyridyl-triazabicycles” (Hoffmann-La Roche Inc., priority 2014, dated 2018).
